Measurements taken from patent US7892776B2, “Screening assay to identify modulators of protein kinase A” (The Regents of the University of California, priority 2007, dated 2011).
pIC50, pKd: −log10 of the molar value. Each block holds one molecule with its values, some of them ahead of it. No end group written: not given here.

Experiments:
[1] = molecular target: T1, type Iα PKA holoenzyme (Bos taurus, UniProt P00514); experiment: High throughput FP assay format (TR-IP20, C-subunit, R-subunit, cGMP); type: binding; details: for HTS result (agonist / antagonist by FP reading versus 3 μM cGMP alone): tested at 25 μM, 40 nM TR-IP20; for reduction in FP signal due to competition with ATP: HTS format, compound at 200 μM, 2 mM ATP
T1 construct: made in house; host or cells: E. coli
Protocol: The high throughput screening (HTS) was performed by addition of 1 μL of a test compound in DMSO to 49 μL buffer containing TR-IP20, C-subunit, R-subunit, and cGMP.
An agonistic Z′-factor was calculated between the half maximal and maximal FP response, while the antagonistic Z′-factor was calculated between the minimal and half maximal FP response. The maximal FP response was calculated by adding 1 μL cGMP in DMSO (500 μM final) to 49 μL HTS mix. Half maximal binding was calculated when 1 μL DMSO was used instead and minimal FP response was calculated by adding 1 μL Rp-8-Br-cAMPS in DMSO (50 μM final). Final DMSO concentration was 2%.
Antagonism by Rp-8-Br-cAMPS was measured with the HTS format.
Finally, to validate the assay, screening was performed on a selection of nucleotide and xanthine derivatives. […] Included in Set 1 are the known PKA effectors 8-Cl-cAMP (agonist) and Rp-8-Br-cAMPS (antagonist).

[2] = molecular target: PKA C-subunit (Homo sapiens, UniProt P17612); details: cited from earlier work
[3] = molecular target: C-subunit of protein kinase A (Mus musculus, UniProt P05132, C200A); experiment: biochemical

T1 sequence (P00514 with tags, fused parts or gaps): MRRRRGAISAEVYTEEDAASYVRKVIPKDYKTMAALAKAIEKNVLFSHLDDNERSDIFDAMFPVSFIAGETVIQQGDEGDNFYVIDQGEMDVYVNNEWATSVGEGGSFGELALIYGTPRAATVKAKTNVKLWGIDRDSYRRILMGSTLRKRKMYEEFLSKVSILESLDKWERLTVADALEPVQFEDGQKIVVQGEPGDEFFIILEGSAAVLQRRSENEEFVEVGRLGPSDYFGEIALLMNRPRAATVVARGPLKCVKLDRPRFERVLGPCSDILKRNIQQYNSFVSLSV

HTS result (agonist / antagonist by FP reading versus 3 μM cGMP alone) [1]: agonist
Molecule: Nc1ncnc2c1nc(Cl)n2[C@@H]1O[C@@H]2COP(=O)(O)O[C@H]2[C@H]1O [8-Cl-cAMP]

Molecule: Nc1ncnc2c1ncn2[C@@H]1O[C@H](COP(=O)(O)OP(=O)(O)OP(=O)(O)O)[C@@H](O)[C@H]1O [ATP]
enhancement of the affinity of the C-subunit for ATP ([2]; in the presence of the R-subunit or IP20, literature (Lew et al. 1997)): over 2000 fold
pKd ([2]; read-out: affinity of ATP for the PKA C-subunit): ~4.60

Molecule: O=S(=O)(NCCNCC=Cc1ccc(Br)cc1)c1cccc2cnccc12 [H89, N-[2-(p-bromocinnamylamino)ethyl]-5-isoquinolinesulfonamide]
reduction in FP signal due to competition with ATP [1]: no reduction in FP signal

Molecule: Nc1ncnc2c1nc(Br)n2C1OC2COP(O)(=S)OC2C1O (stereo not shown) [Rp-8-Br-cAMPS]
HTS result (agonist / antagonist by FP reading versus 3 μM cGMP alone) [1]: antagonist

Molecule: CN[C@@H]1C[C@H]2O[C@@](C)([C@@H]1OC)n1c3ccccc3c3c4c(c5c6ccccc6n2c5c31)C(=O)NC4 [staurosporine]
reduction in FP signal due to competition with ATP [1]: no reduction in FP signal

Molecule: GRTGRRNAIHD-NH2 [PKI (14-24)]
pIC50 [3]: 5.57
